# EP0085842A1, “Antimycosic agents” (BAYER AG, priority 1982, dated 1983)
# Assays:
# Aspergillus fumigatus = assay: Antimycotic in-vitro activity, serial dilution test (MIC); format: cell-based; conditions: Sabouraud's milieu d'epreuve, 20°C, 96 h, inoculum 5 x 10^4 Keime/ml, read-out: MHK-Werte in γ/ml Nährmedium Aspergillus fumigatus
# Protocol: (§1) Versuchsbeschreibung: • Die in-vitro-Prüfungen wurden im Reihenverdünnungstest mit Keiminokula von durchschnittlich 5 x 10^4 Keimen/ml Substrat durchgeführt. Als Nährmedium dienten • a) für Dermatophyten und Schimmelpilze: Sabouraud's milieu d'epreuve • b) für Hefen: • Fleischextrakt-Traubenzucker-Bouillon.
# (§2) Die Bebrütungstemperatur betrug 20°C, die Bebrütungsdauer lag bei 24 bis 96 Stunden bei Hefen und 96 Stunden bei Dermatophyten und Schimmelpilzen.
# Microsporum canis = assay: as above; format: cell-based; conditions: Sabouraud's milieu d'epreuve, 20°C, 96 h, inoculum 5 x 10^4 Keime/ml, read-out: MHK-Werte in γ/ml Nährmedium Microsporum canis
# Protocol: as §1, §2
# Torulopsis glabrata = assay: as above; format: cell-based; conditions: Nakaseomyces glabratus; Fleischextrakt-Traubenzucker-Bouillon, 20°C, 24 to 96 h, inoculum 5 x 10^4 Keime/ml; read-out: MHK-Werte in γ/ml Nährmedium Torulopsis glabrata
# Protocol: as §1, §2
# Candida albicans = assay: as above; format: cell-based; conditions: Fleischextrakt-Traubenzucker-Bouillon, 20°C, 24 to 96 h, inoculum 5 x 10^4 Keime/ml, read-out: MHK-Werte in γ/ml Nährmedium Candida albicans
# Protocol: as §1, §2
# [1] = test system: Trichophyton mentagrophytes; assay: Antimycotic in-vivo activity (local) in experimental guinea pig trichophytosis; parameters: species or system Meerschweinchen; key: +++++: sehr gute Wirkung = keine Infektionszeichen am 12.-15.Tag p.i.; ++++: gute Wirkung = geringe Rötung, vereinzelt Schuppen; +++: Wirkung = Rötung, Schuppung, ohne Haarausfall; ++: schwache Wirkung = Rötung, Schuppung, Haarausfall; +: Spur Wirkung = flächiger Haarausfall, entzündliche Hautreaktion
# Trichophyton mentagr. = assay: Antimycotic in-vitro activity, serial dilution test (MIC); format: cell-based, Trichophyton mentagrophytes; conditions: Sabouraud's milieu d'epreuve, 20°C, 96 h, inoculum 5 x 10^4 Keime/ml, read-out: MHK-Werte in γ/ml Nährmedium Trichophyton mentagr.
# Protocol: as §1, §2
# Candida-Zellen = assay: Antimycotic in-vivo activity (oral) in mouse candidosis; parameters: species or system Mäuse vom Typ SPF-CF1; conditions: for Wirkung: mice infected i.v. with Candida, oral 50 - 100 mg/kg one hour before and seven hours after infection, survivors on day 6 p.i.; for Wirkung compared with known compounds (A), (B), (C) and (D): mouse candidosis, oral 50 - 100 mg/kg
# Protocol: Mäuse vom Typ SPF-CF1 wurden intravenös mit 1 - 2 x 10^6 logarithmisch wachsenden Candida-Zellen, die in physiologischer Kochsalzlösung suspendiert werden, infiziert. Eine Stunde vor und sieben Sunden nach der Infektion werden die Tiere mit jeweils 50 - 100 mg/kg Körpergewicht der Präparate oral behandelt.
# Unbehandelte Tiere starben 3 bis 6 Tage post infektionem. Die Überlebensrate am 6. Tag post infektionem betrug bei unbehandelten Kontrolltieren etwa 5 %.
# +++++ = sehr gute Wirkung = 90 % Überlebende am 6.Tag p.i. ++++ = gute Wirkung = 80 % Überlebende am 6.Tag p.i. +++ = Wirkung = 60 % Überlebende am 6.Tag p.i. ++ = schwache Wirkung = 40 % Überlebende am 6.Tag p.i. + = Spur Wirkung = unter 40 % Überlebende am 6.Tag p.i. k.W. = keine Wirkung
# [2] = local treatment, trichophytosis model
# [3] = local, 1 x daily from day 3 p.i., 15 %ige Lösung in Dimethylsulfoxid:Glycerin = 1:4, infection signs day 12-15 p.i.
Compound,MIC (Aspergillus fumigatus),MIC (Microsporum canis),MIC (Torulopsis glabrata),MIC (Candida albicans),MIC (Trichophyton mentagr.),"Wirkung [1, 2]","Wirkung [1, 3]",Wirkung (Candida-Zellen),"Wirkung compared with known compounds (A), (B), (C) and (D) (Candida-Zellen)"
Cc1cc(Cl)ccc1OCC(O)(Cn1cncn1)C(C)(C)CF (stereo not shown) [Beispiel 8],4 µg/mL,< 1 µg/mL,2 µg/mL,< 1 µg/mL,< 1 µg/mL,Wirkung bis gute Wirkung,+++,+++ (Wirkung = 60 % Überlebende am 6.Tag p.i.),bessere Wirkung
Cc1cc(Cl)ccc1OCC(O)(Cn1cncn1)C(C)(CF)CF (stereo not shown) [Beispiel 15],8 µg/mL,< 1 µg/mL,4 µg/mL,< 1 µg/mL,< 1 µg/mL,Wirkung bis gute Wirkung,++++,++++ (gute Wirkung = 80 % Überlebende am 6.Tag p.i.),bessere Wirkung
CC(CF)(CF)C(O)(COc1ccc(Cl)cc1Cl)Cn1ccnc1 (stereo not shown) [Beispiel 32],32 µg/mL,16 µg/mL,8 µg/mL,2 µg/mL,2 µg/mL,Wirkung bis gute Wirkung,+++,++++ (gute Wirkung = 80 % Überlebende am 6.Tag p.i.),bessere Wirkung
CC(C)(CF)C(O)(COc1ccc(Cl)cc1Cl)Cn1cncn1 (stereo not shown) [Beispiel 9],8 µg/mL,2 µg/mL,4 µg/mL,4 µg/mL,< 1 µg/mL,Wirkung bis gute Wirkung,++++,+++ (Wirkung = 60 % Überlebende am 6.Tag p.i.),bessere Wirkung
CC(CF)(CF)C(O)(COc1ccc(Cl)cc1)Cn1cncn1 (stereo not shown) [Beispiel 13],4 µg/mL,2 µg/mL,8 µg/mL,< 1 µg/mL,< 1 µg/mL,Wirkung bis gute Wirkung,+++,+++++ (sehr gute Wirkung = 90 % Überlebende am 6.Tag p.i.),bessere Wirkung
"C=CC(C)(C)C(O)(COc1ccc(-c2ccccc2)cc1)Cn1ccnc1 (stereo not shown) [Beispiel 5, 4-(4-Biphenylyloxymethyl)-3,3-dimethyl-4-hydroxy-5-(imidazol-1-yl)-1-penten]",< 1 µg/mL,< 1 µg/mL,< 1 µg/mL,< 1 µg/mL,< 1 µg/mL,Wirkung bis gute Wirkung,+++,++++ (gute Wirkung = 80 % Überlebende am 6.Tag p.i.),bessere Wirkung
CC(CF)(CF)C(O)(CCc1ccc(Cl)cc1Cl)Cn1cncn1 (stereo not shown) [Beispiel 27],2 µg/mL,2 µg/mL,4 µg/mL,2 µg/mL,< 1 µg/mL,Wirkung bis gute Wirkung,+++,+++ (Wirkung = 60 % Überlebende am 6.Tag p.i.),bessere Wirkung
CC(C)(CF)C(O)(COc1ccc(Cl)cc1)Cn1cncn1 (stereo not shown) [Beispiel 7],< 1 µg/mL,2 µg/mL,< 1 µg/mL,< 1 µg/mL,< 1 µg/mL,Wirkung bis gute Wirkung,+++,+++++ (sehr gute Wirkung = 90 % Überlebende am 6.Tag p.i.),bessere Wirkung
CC(CF)(CF)C(O)(CCc1ccc(Cl)cc1)Cn1cncn1 (stereo not shown) [Beispiel 28],< 1 µg/mL,2 µg/mL,2 µg/mL,2 µg/mL,< 1 µg/mL,Wirkung bis gute Wirkung,++++,++++ (gute Wirkung = 80 % Überlebende am 6.Tag p.i.),bessere Wirkung

# Continued, in another order:
MIC (Aspergillus fumigatus),MIC (Microsporum canis),MIC (Torulopsis glabrata),MIC (Candida albicans),MIC (Trichophyton mentagr.),Compound,"Wirkung [1, 2]","Wirkung [1, 3]",Wirkung (Candida-Zellen),"Wirkung compared with known compounds (A), (B), (C) and (D) (Candida-Zellen)"
4 µg/mL,< 1 µg/mL,4 µg/mL,< 1 µg/mL,< 1 µg/mL,CC(CF)(CF)C(O)(COc1ccc(Cl)cc1Cl)Cn1cncn1 (stereo not shown) [Beispiel 14],Wirkung bis gute Wirkung,++++,+++++ (sehr gute Wirkung = 90 % Überlebende am 6.Tag p.i.),bessere Wirkung
8 µg/mL,8 µg/mL,16 µg/mL,< 1 µg/mL,4 µg/mL,"CC(C)(CF)C(O)(COc1ccc(F)cc1)Cn1cncn1 (stereo not shown) [Beispiel 1, 4-Fluor-2-(4-fluorphenoxymethyl)-3,3-dimethyl-1-(1,2,4-triazol-1-yl)-butan-2-ol]",,++,+++ (Wirkung = 60 % Überlebende am 6.Tag p.i.),bessere Wirkung
< 1 µg/mL,< 1 µg/mL,2 µg/mL,< 1 µg/mL,< 1 µg/mL,CC(C)(CF)C(O)(CCc1ccc(Cl)cc1)Cn1cncn1 (stereo not shown) [Beispiel 25],Wirkung bis gute Wirkung,++++,+++ (Wirkung = 60 % Überlebende am 6.Tag p.i.),bessere Wirkung
< 1 µg/mL,4 µg/mL,16 µg/mL,2 µg/mL,< 1 µg/mL,C=CC(C)(C)C(O)(COc1ccc(Cl)cc1)Cn1cncn1 (stereo not shown) [Beispiel 22],,++,+++++ (sehr gute Wirkung = 90 % Überlebende am 6.Tag p.i.),bessere Wirkung
< 1 µg/mL,< 1 µg/mL,16 µg/mL,4 µg/mL,< 1 µg/mL,CC(C)(CF)C(O)(CSc1ccc(Cl)cc1)Cn1cncn1 (stereo not shown) [Beispiel 10],Wirkung bis gute Wirkung,++++,++++ (gute Wirkung = 80 % Überlebende am 6.Tag p.i.),bessere Wirkung
